# Several values for one entry are separate records, joined by “and”; a condition that tells them apart may be missing. Equal entries are not always repeated.
# Test system: skin blemishes caused by cellulite and localised adiposity
# Assay: Thigh circumference measured with a measuring tape, dermatological test of the cosmetic gel
# Assay type: in vivo, female volunteers
# Set-up: RIGHT THIGH CIRCUMFERENCE 1/3 T0 / RIGHT THIGH CIRCUMFERENCE 3/3 T15 / RIGHT THIGH CIRCUMFERENCE 3/3 T30 / RIGHT THIGH CIRCUMFERENCE 3/3 T60 / RIGHT THIGH CIRCUMFERENCE 1/3 T15 / RIGHT THIGH CIRCUMFERENCE 1/3 T60 / RIGHT THIGH CIRCUMFERENCE 2/3 T0 / RIGHT THIGH CIRCUMFERENCE 2/3 T15 / RIGHT THIGH CIRCUMFERENCE 2/3 T30 / RIGHT THIGH CIRCUMFERENCE 2/3 T60 / RIGHT THIGH CIRCUMFERENCE 3/3 T0 / LEFT THIGH CIRCUMFERENCE 3/3 T60 / LEFT THIGH CIRCUMFERENCE 1/3 T15 / LEFT THIGH CIRCUMFERENCE 1/3 T30 / LEFT THIGH CIRCUMFERENCE 1/3 T60 / LEFT THIGH CIRCUMFERENCE 2/3 T0 / LEFT THIGH CIRCUMFERENCE 2/3 T15 / LEFT THIGH CIRCUMFERENCE 3/3 T0: unit not given beside the values
# Experimental: A dermatological test was carried out on 25 female volunteers between 18 and 65 years of age, with the backing of the Department of Physiological and Pharmacological Sciences of the university of Pavia. The investigation aimed to check the modification of three anatomical-physiological parameters, qualifying the unaesthetic-functional aspect connected to the manifestation of so-called cellulite and subcutaneous hypertriglyceridaemia: measurement of the skin folds, measurement of the circumference of the thighs, thermographic skin measurement.
# The test stretched out over 60 days with the continual daily application of the aforementioned preparation of cosmetic gel. The measurements were carried out after 15, 30 and 60 days. The detail of the test protocol and of the results obtained is shown hereafter.
# 25 female volunteers aged between 18 and 65, with the presence of skin blemishes caused by cellulite and localised adiposity, were selected according to the following criteria: good general state of health, absence of skin pathologies, not being under medication, commitment not to vary the normal daily routine, no medical history of atopy.
# The samples were tested by uniformly applying them on “Glute SX Glute DJ (Femoris Posto SX Femoris Posto DX Femoris Ant. SX Femoris Ant. DX” every day at least once per day for the entire duration of the test.
# At the time of inclusion in the study and during the subsequent checks after 15 days (T15), after 30 days (T30) and after 60 days (T60) of treatment the following instrumental measurements were taken: • plicometry (through a plicometer) • thigh circumference (through a measuring tape broken into millimetres) • contact thermography (through liquid crystal thermographic plates).
# [1] = MEDIA of 25 volunteers, T0 at inclusion, before treatment
# [2] = MEDIA of 25 volunteers, after 15 days of daily gel application
# [3] = MEDIA of 25 volunteers, after 30 days of daily gel application
# [4] = MEDIA of 25 volunteers, after 60 days of daily gel application
# [5] = individual volunteer, T0 at inclusion, before treatment
# [6] = individual volunteer, after 15 days of daily gel application
# [7] = individual volunteer, after 30 days of daily gel application
# [8] = individual volunteer, after 60 days of daily gel application
substance,measurement,setting,value
carnitine hydroxycitrate [carnitine hydroxy citrate],"LEFT THIGH CIRCUMFERENCE 1/3 T0, MEDIA",[1],53.1
same,"LEFT THIGH CIRCUMFERENCE 2/3 T0, MEDIA",[1],50.2
same,"LEFT THIGH CIRCUMFERENCE 3/3 T0, MEDIA",[1],40.3
same,"RIGHT THIGH CIRCUMFERENCE 1/3 T0, MEDIA",[1],53.1
same,"RIGHT THIGH CIRCUMFERENCE 2/3 T0, MEDIA",[1],50.3
same,"RIGHT THIGH CIRCUMFERENCE 3/3 T0, MEDIA",[1],40.4
same,"LEFT THIGH CIRCUMFERENCE 1/3 T15, MEDIA",[2],52.7
same,"LEFT THIGH CIRCUMFERENCE 2/3 T15, MEDIA",[2],49.7
same,"LEFT THIGH CIRCUMFERENCE 3/3 T15, MEDIA",[2],39.8
same,"RIGHT THIGH CIRCUMFERENCE 1/3 T15, MEDIA",[2],53.3
same,"RIGHT THIGH CIRCUMFERENCE 2/3 T15, MEDIA",[2],49.2
same,"RIGHT THIGH CIRCUMFERENCE 3/3 T15, MEDIA",[2],39.5
same,"LEFT THIGH CIRCUMFERENCE 1/3 T30, MEDIA",[3],51.6
same,"LEFT THIGH CIRCUMFERENCE 2/3 T30, MEDIA",[3],48.8
same,"LEFT THIGH CIRCUMFERENCE 3/3 T30, MEDIA",[3],38.7
same,"RIGHT THIGH CIRCUMFERENCE 1/3 T30, MEDIA",[3],51.8
same,"RIGHT THIGH CIRCUMFERENCE 2/3 T30, MEDIA",[3],48.8
same,"RIGHT THIGH CIRCUMFERENCE 3/3 T30, MEDIA",[3],38.8
same,"LEFT THIGH CIRCUMFERENCE 1/3 T60, MEDIA",[4],50.7
same,"LEFT THIGH CIRCUMFERENCE 2/3 T60, MEDIA",[4],47.9
same,"LEFT THIGH CIRCUMFERENCE 3/3 T60, MEDIA",[4],38.1
same,"RIGHT THIGH CIRCUMFERENCE 1/3 T60, MEDIA",[4],50.7
same,"RIGHT THIGH CIRCUMFERENCE 2/3 T60, MEDIA",[4],47.7
same,"RIGHT THIGH CIRCUMFERENCE 3/3 T60, MEDIA",[4],38.0
same,LEFT THIGH CIRCUMFERENCE 1/3 T0,[5],55.0 and 52.8 (2×) and 51.7 and 64.0 and 55.7 (3×) and 51.0 and 47.6 and 49.0 and 52.5 and 56.6 and 58.1 and 55.2 and 47.1 and 47.0 and 48.5 and 52.1 and 50.2 and 52.7 and 49.7 and 60.6 and 48.2 and 59.2
same,LEFT THIGH CIRCUMFERENCE 2/3 T0,[5],49.9 and 51.3 and 49.0 and 58.4 and 52.4 and 46.9 and 46.2 and 47.9 (2×) and 50.4 and 52.9 and 55.9 (2×) and 56.7 and 48.9 and 46.7 and 52.6 and 44.0 and 45.4 (2×) and 52.0 and 51.4 and 48.2 and 44.9 and 54.6
same,LEFT THIGH CIRCUMFERENCE 3/3 T0,[5],41.2 (2×) and 39.7 (2×) and 48.0 and 37.6 (2×) and 36.4 (2×) and 37.7 and 38.4 and 39.8 and 37.8 and 43.1 and 43.2 and 37.4 and 38.7 (2×) and 37.9 and 47.2 and 44.2 and 38.6 and 43.8 and 36.3 and 46.4
same,RIGHT THIGH CIRCUMFERENCE 1/3 T0,[5],55.0 and 53.2 and 52.0 (2×) and 64.7 and 55.7 (2×) and 50.6 and 48.1 and 49.0 and 53.0 and 56.9 and 59.0 and 55.2 and 52.6 and 47.0 (2×) and 48.3 and 52.2 and 54.9 and 50.2 and 50.8 and 60.8 and 48.2 and 56.0
same,RIGHT THIGH CIRCUMFERENCE 2/3 T0,[5],49.9 and 51.3 and 49.0 and 58.4 and 52.5 and 47.2 and 46.5 and 47.9 (2×) and 50.4 and 52.9 and 55.9 and 56.8 and 49.2 and 46.7 and 52.6 and 44.0 and 45.4 (2×) and 52.0 and 51.4 and 48.2 and 45.3 and 55.6 and 54.6
same,RIGHT THIGH CIRCUMFERENCE 3/3 T0,[5],41.2 (2×) and 39.7 and 48.0 and 37.6 (2×) and 36.4 (2×) and 37.7 and 38.4 (2×) and 39.8 and 37.8 and 45.3 and 43.2 and 37.4 and 38.6 and 39.0 and 37.9 and 39.5 and 47.5 and 44.1 and 43.8 and 36.3 and 46.4
same,LEFT THIGH CIRCUMFERENCE 1/3 T15,[6],54.5 and 52.3 (2×) and 51.2 and 63.5 and 55.2 (3×) and 50.5 and 47.1 and 48.5 and 52.0 and 56.1 and 57.6 and 54.7 and 46.6 and 46.5 and 48.0 and 51.6 and 49.7 and 52.2 and 49.2 and 60.5 and 47.7 and 58.7
same,LEFT THIGH CIRCUMFERENCE 2/3 T15,[6],49.4 and 50.8 and 48.5 and 57.9 and 51.9 and 46.4 and 45.7 and 47.4 (2×) and 49.9 and 52.4 and 55.4 (2×) and 56.2 and 48.4 and 46.2 and 52.1 and 43.5 and 44.9 (2×) and 51.5 and 50.9 and 47.7 and 44.4 and 54.1
same,LEFT THIGH CIRCUMFERENCE 3/3 T15,[6],40.7 (2×) and 39.2 (2×) and 47.5 and 37.1 (2×) and 35.9 (2×) and 37.2 and 37.9 and 39.3 and 37.3 and 42.6 and 42.7 and 36.9 and 38.2 (2×) and 37.4 and 46.7 and 43.7 and 38.1 and 43.3 and 35.8 and 45.9
same,RIGHT THIGH CIRCUMFERENCE 1/3 T15,[6],55.9 and 52.8 and 53.2 and 65.3 and 55.3 and 49.4 and 48.4 and 49.8 and 53.3 and 57.6 and 59.2 and 54.3 and 50.5 and 48.1 and 56.3 and 48.0 (2×) and 48.8 and 51.8 and 54.5 and 51.0 and 50.8 and 50.4 and 60.4 and 59.8
same,RIGHT THIGH CIRCUMFERENCE 2/3 T15,[6],48.2 and 49.6 and 47.3 (2×) and 56.7 and 50.7 and 46.2 (2×) and 44.5 and 49.8 and 52.3 and 55.6 and 56.5 and 48.7 and 45.0 and 50.9 and 44.0 and 45.2 and 51.8 and 51.0 and 47.9 and 43.2 and 54.2 and 43.7 and 52.9
same,RIGHT THIGH CIRCUMFERENCE 3/3 T15,[6],40.6 and 40.8 and 37.7 (3×) and 49.2 and 38.5 (2×) and 35.3 and 37.2 and 37.1 and 39.7 and 44.5 and 42.3 and 36.6 and 39.2 and 35.5 and 38.7 and 39.4 and 43.2 and 37.5 and 36.4 and 43.9 and 35.8 and 45.5
same,LEFT THIGH CIRCUMFERENCE 1/3 T30,[7],53.4 and 51.2 (2×) and 50.1 and 62.4 and 54.2 and 49.2 and 46.0 and 47.4 and 50.9 and 55.0 and 56.5 and 53.6 and 45.5 and 54.1 and 45.4 and 46.9 and 50.5 and 54.0 and 49.7 and 52.3 and 48.1 and 59.0 and 46.6 and 57.6
same,LEFT THIGH CIRCUMFERENCE 2/3 T30,[7],48.5 and 49.9 and 47.6 and 57.0 and 51.0 and 45.5 and 44.8 and 46.5 (2×) and 49.0 and 51.5 and 54.5 (2×) and 55.3 and 47.5 and 45.3 and 51.2 and 42.6 and 44.0 (2×) and 50.6 and 50.0 and 46.8 and 43.5 and 53.2
same,LEFT THIGH CIRCUMFERENCE 3/3 T30,[7],39.5 (2×) and 38.0 (2×) and 46.3 and 35.9 (2×) and 34.7 (2×) and 36.0 and 36.7 and 38.1 (2×) and 36.1 and 41.4 and 41.5 and 35.7 and 37.0 (2×) and 36.2 and 45.5 and 43.6 and 42.1 and 34.6 and 44.7
same,RIGHT THIGH CIRCUMFERENCE 1/3 T30,[7],54.5 and 51.4 and 51.8 and 63.9 and 53.9 and 48.0 and 47.0 and 48.4 and 51.9 and 56.2 and 57.8 and 52.9 and 49.3 and 46.7 and 53.6 and 47.1 and 46.5 and 49.9 and 53.0 and 48.6 and 48.5 and 49.0 and 59.0 and 46.4 and 58.4
same,RIGHT THIGH CIRCUMFERENCE 2/3 T30,[7],48.2 and 48.0 and 46.8 and 56.4 and 50.3 and 46.5 and 44.3 and 44.6 (2×) and 49.6 and 51.7 and 55.4 and 56.0 and 48.6 and 45.0 and 50.0 and 44.0 and 50.6 and 51.0 and 47.0 and 47.8 and 43.0 and 53.9 and 44.2 and 51.3
same,RIGHT THIGH CIRCUMFERENCE 3/3 T30,[7],40.5 and 40.3 and 36.6 (2×) and 48.1 and 38.2 and 34.2 and 36.4 (2×) and 38.7 (2×) and 38.4 and 43.4 and 41.0 and 36.2 and 36.8 (2×) and 35.2 and 37.8 and 38.3 and 42.5 and 35.7 and 42.8 and 35.6 and 44.3
same,LEFT THIGH CIRCUMFERENCE 1/3 T60,[8],52.7 and 50.5 (2×) and 49.4 and 61.7 and 53.4 (2×) and 48.7 and 44.9 and 46.7 and 50.0 and 53.7 and 55.8 and 51.7 and 44.8 and 52.9 and 44.7 and 46.2 and 49.8 and 48.5 and 50.4 and 47.4 and 57.9 and 45.9 and 56.9
same,LEFT THIGH CIRCUMFERENCE 2/3 T60,[8],47.6 and 49.0 and 46.7 and 56.1 and 50.1 and 44.6 and 43.9 and 45.6 (2×) and 48.1 and 50.6 and 53.6 (2×) and 54.4 and 46.6 and 44.4 and 50.3 and 41.7 and 43.1 (2×) and 49.7 and 49.1 and 45.9 and 42.6 and 52.3
same,LEFT THIGH CIRCUMFERENCE 3/3 T60,[8],39.0 (2×) and 37.5 (2×) and 45.8 and 35.4 (2×) and 34.2 (2×) and 35.5 and 36.2 and 37.6 and 35.6 and 41.6 (2×) and 41.0 and 35.2 and 36.5 (2×) and 35.7 and 45.0 and 42.0 and 36.4 and 34.1 and 44.2
same,RIGHT THIGH CIRCUMFERENCE 1/3 T60,[8],53.8 and 50.7 and 50.0 and 62.4 and 53.2 and 47.3 and 46.0 and 47.2 and 51.0 and 55.5 and 56.7 and 52.0 and 48.4 and 44.7 and 52.8 and 45.0 and 45.9 and 49.3 and 51.8 and 48.1 and 48.5 and 48.3 and 57.8 and 45.7 and 56.5
same,RIGHT THIGH CIRCUMFERENCE 2/3 T60,[8],46.8 and 48.1 and 46.5 and 56.4 and 49.2 and 43.7 and 44.5 and 44.7 and 47.2 and 49.7 and 53.8 and 56.0 and 46.3 and 43.5 (2×) and 49.4 and 44.3 and 50.2 and 48.3 and 45.9 and 45.0 and 41.7 and 52.7 and 43.2 and 50.8
same,RIGHT THIGH CIRCUMFERENCE 3/3 T60,[8],38.2 (2×) and 39.3 and 36.2 (3×) and 47.7 and 37.0 (2×) and 33.8 and 35.7 and 35.6 and 43.0 and 40.8 and 34.8 and 37.7 and 34.2 and 37.2 and 37.9 and 41.7 and 36.0 and 33.7 and 42.4 and 34.3 and 44.0
